Measurements from ChEMBL document CHEMBL1255169, “Synthesis, structure-affinity relationships, and radiolabeling of selective high-affinity 5-HT4 receptor ligands as prospective imaging probes for positron emission tomography” (J Med Chem, 2010).
Activity calls are given as the source filed them. No cut-off for these calls is given here.

How the values were obtained:
[1] = molecular target: T1, 5-hydroxytryptamine receptor 4 (Homo sapiens, UniProt Q13639); test: Displacement of [3H]GR113808 from human recombinant 5HT4 receptor expressed in HEK293 cells; type: cell-based
T1 sequence (Q13639 whole entry): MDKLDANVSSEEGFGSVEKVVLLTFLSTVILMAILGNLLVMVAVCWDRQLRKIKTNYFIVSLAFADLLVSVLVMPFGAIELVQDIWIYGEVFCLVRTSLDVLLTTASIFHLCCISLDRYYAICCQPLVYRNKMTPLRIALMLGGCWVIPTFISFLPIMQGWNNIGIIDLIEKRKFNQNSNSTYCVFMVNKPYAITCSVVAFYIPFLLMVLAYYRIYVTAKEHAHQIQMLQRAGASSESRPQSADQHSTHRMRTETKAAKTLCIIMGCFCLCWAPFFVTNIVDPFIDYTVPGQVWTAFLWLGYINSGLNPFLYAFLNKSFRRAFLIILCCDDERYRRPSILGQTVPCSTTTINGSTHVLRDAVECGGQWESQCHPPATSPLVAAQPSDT

[2] = molecular target: T1, 5-hydroxytryptamine receptor 4; test: Inverse agonist activity at 5HT4 receptor expressed in HEK293/L9 cells by cAMP assay; type: functional, cell-based
[3] = molecular target: T1, 5-hydroxytryptamine receptor 4; test: Agonist activity at 5HT4 receptor expressed in HEK293/L9 cells by cAMP assay; type: functional, cell-based
[4] = molecular target: 5-hydroxytryptamine receptor 1A (Homo sapiens, UniProt P08908); test: Binding affinity to human 5-HT1A receptor
Sequence of 5-hydroxytryptamine receptor 1A (P08908 whole entry): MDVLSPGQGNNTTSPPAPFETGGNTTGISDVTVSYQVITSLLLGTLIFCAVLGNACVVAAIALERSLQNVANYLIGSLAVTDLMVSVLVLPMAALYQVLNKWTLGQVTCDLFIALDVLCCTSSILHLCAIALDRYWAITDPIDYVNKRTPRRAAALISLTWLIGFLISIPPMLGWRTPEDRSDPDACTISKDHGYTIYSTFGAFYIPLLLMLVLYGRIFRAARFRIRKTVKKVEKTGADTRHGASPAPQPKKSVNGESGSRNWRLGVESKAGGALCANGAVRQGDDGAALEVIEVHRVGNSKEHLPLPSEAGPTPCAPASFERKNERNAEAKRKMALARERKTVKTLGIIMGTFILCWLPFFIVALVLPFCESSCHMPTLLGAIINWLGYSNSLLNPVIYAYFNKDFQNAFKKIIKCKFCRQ

[5] = molecular target: 5-hydroxytryptamine receptor 1B (Homo sapiens, UniProt P28222); test: Binding affinity to human 5-HT1B receptor
Sequence of 5-hydroxytryptamine receptor 1B (P28222 whole entry): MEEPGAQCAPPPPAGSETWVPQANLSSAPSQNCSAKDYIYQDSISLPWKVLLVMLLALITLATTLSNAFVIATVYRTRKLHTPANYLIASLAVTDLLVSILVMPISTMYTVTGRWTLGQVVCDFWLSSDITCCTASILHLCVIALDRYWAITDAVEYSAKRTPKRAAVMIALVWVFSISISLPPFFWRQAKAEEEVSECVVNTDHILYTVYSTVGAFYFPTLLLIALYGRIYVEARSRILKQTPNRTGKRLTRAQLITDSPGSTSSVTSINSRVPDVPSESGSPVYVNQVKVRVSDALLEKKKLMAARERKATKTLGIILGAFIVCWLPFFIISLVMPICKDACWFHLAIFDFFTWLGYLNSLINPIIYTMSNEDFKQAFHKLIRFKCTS

[6] = molecular target: 5-hydroxytryptamine receptor 2A (Homo sapiens, UniProt P28223); test: Binding affinity to human 5-HT2A receptor
[7] = molecular target: 5-hydroxytryptamine receptor 2B (Homo sapiens, UniProt P41595); test: Binding affinity to human 5-HT2B receptor
Sequence of 5-hydroxytryptamine receptor 2B (P41595 whole entry): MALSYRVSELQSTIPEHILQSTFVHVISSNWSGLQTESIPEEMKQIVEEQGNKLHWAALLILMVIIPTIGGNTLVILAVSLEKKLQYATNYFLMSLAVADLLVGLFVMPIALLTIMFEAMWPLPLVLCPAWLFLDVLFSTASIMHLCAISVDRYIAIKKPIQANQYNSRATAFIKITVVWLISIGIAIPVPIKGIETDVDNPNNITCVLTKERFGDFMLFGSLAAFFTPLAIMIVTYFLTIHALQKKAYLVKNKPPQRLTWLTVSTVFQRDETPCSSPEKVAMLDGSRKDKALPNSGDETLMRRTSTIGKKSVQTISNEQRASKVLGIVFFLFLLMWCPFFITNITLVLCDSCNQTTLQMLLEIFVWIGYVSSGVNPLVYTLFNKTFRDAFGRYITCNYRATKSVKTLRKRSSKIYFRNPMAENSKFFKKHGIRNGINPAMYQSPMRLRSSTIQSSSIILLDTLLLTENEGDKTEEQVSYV

[8] = molecular target: T2, 5-hydroxytryptamine receptor 2C (Homo sapiens, UniProt P28335); test: Binding affinity to human 5-HT2C receptor
T2 sequence (P28335 whole entry): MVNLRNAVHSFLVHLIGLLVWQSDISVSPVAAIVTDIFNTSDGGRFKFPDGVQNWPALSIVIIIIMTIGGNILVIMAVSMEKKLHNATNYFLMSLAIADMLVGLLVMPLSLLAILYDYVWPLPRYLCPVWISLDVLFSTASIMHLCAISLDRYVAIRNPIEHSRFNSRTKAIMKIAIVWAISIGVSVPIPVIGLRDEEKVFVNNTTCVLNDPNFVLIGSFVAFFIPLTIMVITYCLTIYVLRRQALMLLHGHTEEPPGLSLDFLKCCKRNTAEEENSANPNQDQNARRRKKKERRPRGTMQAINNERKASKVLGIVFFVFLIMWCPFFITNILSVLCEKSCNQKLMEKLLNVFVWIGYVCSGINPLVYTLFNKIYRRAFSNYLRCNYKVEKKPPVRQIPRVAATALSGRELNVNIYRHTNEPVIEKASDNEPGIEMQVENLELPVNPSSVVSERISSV

[9] = molecular target: 5-hydroxytryptamine receptor 3A (Homo sapiens, UniProt P46098); test: Binding affinity to human 5-HT3 receptor
[10] = molecular target: 5-hydroxytryptamine receptor 5A (Homo sapiens, UniProt P47898); test: Binding affinity to human 5-HT5A receptor
[11] = molecular target: 5-hydroxytryptamine receptor 6 (Homo sapiens, UniProt P50406); test: Binding affinity to human 5-HT6 receptor
[12] = molecular target: Sodium-dependent serotonin transporter (Homo sapiens, UniProt P31645); test: Binding affinity to human SERT
[13] = molecular target: T3, Alpha-1B adrenergic receptor (Homo sapiens, UniProt P35368); test: Binding affinity to human adrenergic Alpha-1B receptor
T3 sequence (P35368 whole entry): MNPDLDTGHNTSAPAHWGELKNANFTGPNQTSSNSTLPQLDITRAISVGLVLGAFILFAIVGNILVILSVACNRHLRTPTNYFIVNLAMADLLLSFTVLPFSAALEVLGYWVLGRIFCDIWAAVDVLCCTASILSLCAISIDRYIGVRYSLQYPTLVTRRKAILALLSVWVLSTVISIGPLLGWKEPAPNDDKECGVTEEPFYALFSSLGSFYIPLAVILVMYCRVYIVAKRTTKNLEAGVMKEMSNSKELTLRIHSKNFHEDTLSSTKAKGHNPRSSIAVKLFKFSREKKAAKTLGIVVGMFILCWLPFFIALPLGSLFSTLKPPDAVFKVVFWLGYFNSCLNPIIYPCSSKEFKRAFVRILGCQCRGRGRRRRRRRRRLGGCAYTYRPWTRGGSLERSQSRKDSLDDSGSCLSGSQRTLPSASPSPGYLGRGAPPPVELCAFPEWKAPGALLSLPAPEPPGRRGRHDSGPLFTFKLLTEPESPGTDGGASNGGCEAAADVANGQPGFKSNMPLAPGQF

[14] = molecular target: Beta-2 adrenergic receptor (Rattus norvegicus, UniProt P10608); test: Binding affinity to rat adrenergic beta2 receptor
Sequence of Beta-2 adrenergic receptor (P10608 whole entry): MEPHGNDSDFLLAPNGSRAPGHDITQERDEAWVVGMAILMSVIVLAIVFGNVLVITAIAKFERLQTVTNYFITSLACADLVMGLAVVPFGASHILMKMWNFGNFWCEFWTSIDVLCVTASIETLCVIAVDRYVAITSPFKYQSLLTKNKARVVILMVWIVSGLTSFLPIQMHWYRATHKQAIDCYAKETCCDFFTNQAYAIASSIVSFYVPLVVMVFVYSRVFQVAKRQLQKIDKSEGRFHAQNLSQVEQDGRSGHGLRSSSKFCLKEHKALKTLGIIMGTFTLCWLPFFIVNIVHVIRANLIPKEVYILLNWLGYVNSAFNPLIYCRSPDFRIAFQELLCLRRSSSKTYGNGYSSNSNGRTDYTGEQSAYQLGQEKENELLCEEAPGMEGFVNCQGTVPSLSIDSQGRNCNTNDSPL

[15] = molecular target: Sigma non-opioid intracellular receptor 1 (Rattus norvegicus, UniProt Q9R0C9); test: Binding affinity to rat sigma 1 receptor
[16] = molecular target: Sodium-dependent dopamine transporter (Homo sapiens, UniProt Q01959); test: Binding affinity to human DAT
Sequence of Sodium-dependent dopamine transporter (Q01959 whole entry): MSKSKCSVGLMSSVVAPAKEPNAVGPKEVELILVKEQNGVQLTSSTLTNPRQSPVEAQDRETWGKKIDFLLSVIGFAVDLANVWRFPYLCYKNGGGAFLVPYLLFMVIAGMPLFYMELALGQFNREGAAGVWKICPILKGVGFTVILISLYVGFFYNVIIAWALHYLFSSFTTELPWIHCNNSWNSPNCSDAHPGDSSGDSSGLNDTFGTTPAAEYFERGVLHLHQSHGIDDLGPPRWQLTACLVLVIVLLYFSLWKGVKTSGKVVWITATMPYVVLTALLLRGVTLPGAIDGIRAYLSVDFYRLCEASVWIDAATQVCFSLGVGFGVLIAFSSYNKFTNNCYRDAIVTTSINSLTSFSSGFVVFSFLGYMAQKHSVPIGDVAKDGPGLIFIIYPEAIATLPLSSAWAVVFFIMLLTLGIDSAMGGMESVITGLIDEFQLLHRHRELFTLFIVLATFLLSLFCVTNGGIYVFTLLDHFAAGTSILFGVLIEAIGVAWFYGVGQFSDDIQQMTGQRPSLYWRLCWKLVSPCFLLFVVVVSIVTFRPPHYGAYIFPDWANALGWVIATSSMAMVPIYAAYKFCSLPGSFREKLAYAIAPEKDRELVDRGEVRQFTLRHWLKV

[17] = molecular target: D(1A) dopamine receptor (Rattus norvegicus, UniProt P18901); test: Binding affinity to rat dopamine D1 receptor
Sequence of D(1A) dopamine receptor (P18901 whole entry): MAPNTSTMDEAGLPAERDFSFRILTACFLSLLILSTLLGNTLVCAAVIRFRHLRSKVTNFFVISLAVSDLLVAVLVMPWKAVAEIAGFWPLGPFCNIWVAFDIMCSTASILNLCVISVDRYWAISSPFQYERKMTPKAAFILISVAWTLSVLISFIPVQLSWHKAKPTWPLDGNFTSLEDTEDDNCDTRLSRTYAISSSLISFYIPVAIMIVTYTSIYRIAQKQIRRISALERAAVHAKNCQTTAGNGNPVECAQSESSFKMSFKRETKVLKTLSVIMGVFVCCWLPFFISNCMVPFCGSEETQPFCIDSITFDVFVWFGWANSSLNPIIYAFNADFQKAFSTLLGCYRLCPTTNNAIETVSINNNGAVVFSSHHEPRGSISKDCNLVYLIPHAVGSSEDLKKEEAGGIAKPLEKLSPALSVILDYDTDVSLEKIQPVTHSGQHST

[18] = molecular target: D(2) dopamine receptor (Rattus norvegicus, UniProt P61169); test: Binding affinity to rat dopamine D2 receptor
[19] = molecular target: D(3) dopamine receptor (Rattus norvegicus, UniProt P19020); test: Binding affinity to rat dopamine D3 receptor
[20] = molecular target: T4, D(4) dopamine receptor (Rattus norvegicus, UniProt P30729); test: Binding affinity to rat dopamine D4 receptor
T4 sequence (P30729 whole entry): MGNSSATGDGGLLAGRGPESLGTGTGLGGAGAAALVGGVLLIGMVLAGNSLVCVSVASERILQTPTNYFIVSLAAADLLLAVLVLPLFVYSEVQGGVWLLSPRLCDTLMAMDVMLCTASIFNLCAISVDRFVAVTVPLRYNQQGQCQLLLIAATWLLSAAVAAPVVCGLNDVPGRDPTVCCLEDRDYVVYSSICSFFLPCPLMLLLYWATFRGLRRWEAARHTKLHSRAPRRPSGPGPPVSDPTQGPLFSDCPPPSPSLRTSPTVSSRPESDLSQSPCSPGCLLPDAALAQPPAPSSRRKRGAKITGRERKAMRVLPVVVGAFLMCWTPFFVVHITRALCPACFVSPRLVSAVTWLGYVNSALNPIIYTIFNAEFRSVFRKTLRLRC

[21] = molecular target: Histamine H2 receptor (Cavia porcellus, UniProt P47747); test: Binding affinity to guinea pig histamine H2 receptor
Sequence of Histamine H2 receptor (P47747 whole entry): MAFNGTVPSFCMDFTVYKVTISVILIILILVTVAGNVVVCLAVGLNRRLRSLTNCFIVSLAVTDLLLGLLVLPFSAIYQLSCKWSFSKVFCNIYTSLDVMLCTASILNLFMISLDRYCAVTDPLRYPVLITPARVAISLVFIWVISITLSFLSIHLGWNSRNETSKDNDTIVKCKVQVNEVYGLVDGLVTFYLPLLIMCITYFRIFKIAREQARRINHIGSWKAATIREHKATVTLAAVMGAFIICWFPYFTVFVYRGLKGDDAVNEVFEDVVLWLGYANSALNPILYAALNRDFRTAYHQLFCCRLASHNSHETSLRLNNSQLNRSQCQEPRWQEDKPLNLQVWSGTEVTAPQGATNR

[22] = molecular target: Kappa-type opioid receptor (Homo sapiens, UniProt P41145); test: Binding affinity to human kappa opioid receptor
Sequence of Kappa-type opioid receptor (P41145 whole entry): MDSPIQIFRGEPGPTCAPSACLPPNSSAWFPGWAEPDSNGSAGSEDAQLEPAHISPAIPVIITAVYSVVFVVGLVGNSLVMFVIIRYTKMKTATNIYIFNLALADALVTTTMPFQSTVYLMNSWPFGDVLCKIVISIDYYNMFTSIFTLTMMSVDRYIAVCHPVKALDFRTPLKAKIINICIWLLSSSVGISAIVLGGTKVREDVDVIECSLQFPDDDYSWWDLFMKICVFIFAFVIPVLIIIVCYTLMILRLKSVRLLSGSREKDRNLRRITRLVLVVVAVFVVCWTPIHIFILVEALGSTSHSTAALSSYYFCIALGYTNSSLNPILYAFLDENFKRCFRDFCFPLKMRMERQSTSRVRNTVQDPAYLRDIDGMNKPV

[23] = molecular target: Muscarinic acetylcholine receptor M2 (Homo sapiens, UniProt P08172); test: Binding affinity to human muscarinic M2 receptor
Sequence of Muscarinic acetylcholine receptor M2 (P08172 whole entry): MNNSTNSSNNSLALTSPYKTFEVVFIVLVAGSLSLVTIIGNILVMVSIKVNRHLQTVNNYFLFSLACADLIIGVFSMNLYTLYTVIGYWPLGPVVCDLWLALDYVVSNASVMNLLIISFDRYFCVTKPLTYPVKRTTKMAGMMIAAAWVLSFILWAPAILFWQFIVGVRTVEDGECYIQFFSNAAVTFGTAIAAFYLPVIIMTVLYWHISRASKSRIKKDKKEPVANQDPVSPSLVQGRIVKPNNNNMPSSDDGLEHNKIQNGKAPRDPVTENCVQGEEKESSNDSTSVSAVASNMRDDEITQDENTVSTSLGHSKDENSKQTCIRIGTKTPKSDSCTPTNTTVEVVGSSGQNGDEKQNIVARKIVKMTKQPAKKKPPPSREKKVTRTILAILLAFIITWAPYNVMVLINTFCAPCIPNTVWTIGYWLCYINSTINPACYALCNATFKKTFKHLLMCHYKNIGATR

[24] = molecular target: Muscarinic acetylcholine receptor M4 (Homo sapiens, UniProt P08173); test: Binding affinity to human muscarinic M4 receptor
Sequence of Muscarinic acetylcholine receptor M4 (P08173 whole entry): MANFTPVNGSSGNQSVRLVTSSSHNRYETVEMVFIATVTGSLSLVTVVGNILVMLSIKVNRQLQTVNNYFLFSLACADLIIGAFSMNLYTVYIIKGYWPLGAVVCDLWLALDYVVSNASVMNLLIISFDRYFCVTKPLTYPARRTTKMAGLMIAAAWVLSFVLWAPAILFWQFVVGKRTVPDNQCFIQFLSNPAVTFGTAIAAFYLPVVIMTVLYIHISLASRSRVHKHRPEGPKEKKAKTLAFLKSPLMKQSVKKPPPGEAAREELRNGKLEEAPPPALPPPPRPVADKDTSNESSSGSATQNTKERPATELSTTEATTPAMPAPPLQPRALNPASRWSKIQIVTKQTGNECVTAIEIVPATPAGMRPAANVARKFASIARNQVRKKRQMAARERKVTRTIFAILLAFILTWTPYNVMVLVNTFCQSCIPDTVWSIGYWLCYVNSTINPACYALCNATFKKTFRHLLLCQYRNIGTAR

[25] = molecular target: T1, 5-hydroxytryptamine receptor 4; test: Antagonist activity at 5HT4 receptor expressed in HEK293/L9 cells by cAMP assay; type: functional, cell-based
[26] = molecular target: 5-hydroxytryptamine receptor 1E (Homo sapiens, UniProt P28566); test: Binding affinity to human 5-HT1E receptor

SMILES | Ki [1] [nM] | Ki [4] [nM] | Ki [5] [nM] | Ki [6] [nM] | Ki [7] [nM] | Ki [8] [nM] | Ki [9] [nM] | Ki [10] [nM] | Ki [11] [nM] | Ki [12] [nM] | Ki [13] [nM] | Ki [14] [nM] | Ki [15] [nM] | Ki [16] [nM] | Ki [17] [nM] | Ki [18] [nM] | Ki [19] [nM] | Ki [20] [nM] | Ki [21] [nM] | Ki [22] [nM] | other results
CCCCN1CCC(COC(=O)c2cc(Cl)c(NC)c3c2OCCO3)CC1 | 2 | 300 | 820 | 1780 | 66 | 685 | 1070 | 8590 | 489 | 9010 | > 10000 | > 10000 | 60 | 2020 | 2290 | 220 | 336 | 43 | > 10000 | > 10000 | Efficacy [2]: Active; EC50 [3]: 14.1 nM; Ki [23]: 433 nM; Ki [24]: 760 nM
CCCCN1CCC(COC(=O)c2ccc(N)c(OC)c2)CC1 | 2.4 | > 10000 | > 10000 | > 10000 | 2860 | > 10000 | 3510 | > 10000 | > 10000 | > 10000 | 4230 | > 10000 | 211 | > 10000 | > 10000 | > 10000 | 6270 | 1270 | > 10000 | > 10000 | Efficacy [25]: Active; Ki [26]: > 10000 nM; Ki [23]: > 10000 nM; Ki [24]: 2580 nM
